Where two headings read alike, the source gives them in different places. Marks after values point to notes of the source that are not given here. Each block holds one compound with its values, some of them ahead of it.
Legend:
CaCo-2 permeability = format: in vitro ADME; settings: human
[1] = tested on: CHK1 S296 autophosphorylation in SW620 human colon cancer xenografts; test: Gemcitabine-induced CHK1 phosphorylation in SW620 xenografts; format: in vivo, mouse; settings: single po dose at MTD (20: 160, 26: 300 mg/kg); 12 h after gemcitabine
[2] = Plasma and tumor drug levels in SW620 xenograft-bearing mice; format: in vivo, mouse; settings: po dose at MTD
[3] = tested on: panel of 140 representative kinases; test: Radiometric kinase panel summary, 1 μM; format: biochemical, human; settings: of 140 kinases
AMPK = test: radiometric kinase profiling; format: biochemical; settings: 1 μM
121 kinases = settings: against 89 out of the 121 enzymes, screen at 10 μM
[4] = tested on: pS296 CHK1 in HT29 colon tumor xenografts; settings: single doses 100–300 mg/kg po; cited from earlier work
[5] = tested on: HT29 human colon cancer xenograft; settings: cited from earlier work; for tumor growth delay (days), 26: HT29, q7d × 3, 26 75 mg/kg po alone
[6] = tested on: SW620 human colon cancer xenograft; settings: SW620, q4d × 3, gemcitabine 100 mg/kg iv + 26 75 mg/kg po; cited from earlier work
[7] = tested on: Calu6 human non-small cell lung cancer xenograft; settings: Calu6, q7d × 3, gemcitabine 100 mg/kg iv + 26 75 mg/kg po; cited from earlier work
CHK2 = CHK2 (Homo sapiens, UniProt O96017); test: CHK2 DELFIA kinase assay; format: biochemical; settings: data not shown
Chain of CHK2 (O96017 whole entry, species assumed): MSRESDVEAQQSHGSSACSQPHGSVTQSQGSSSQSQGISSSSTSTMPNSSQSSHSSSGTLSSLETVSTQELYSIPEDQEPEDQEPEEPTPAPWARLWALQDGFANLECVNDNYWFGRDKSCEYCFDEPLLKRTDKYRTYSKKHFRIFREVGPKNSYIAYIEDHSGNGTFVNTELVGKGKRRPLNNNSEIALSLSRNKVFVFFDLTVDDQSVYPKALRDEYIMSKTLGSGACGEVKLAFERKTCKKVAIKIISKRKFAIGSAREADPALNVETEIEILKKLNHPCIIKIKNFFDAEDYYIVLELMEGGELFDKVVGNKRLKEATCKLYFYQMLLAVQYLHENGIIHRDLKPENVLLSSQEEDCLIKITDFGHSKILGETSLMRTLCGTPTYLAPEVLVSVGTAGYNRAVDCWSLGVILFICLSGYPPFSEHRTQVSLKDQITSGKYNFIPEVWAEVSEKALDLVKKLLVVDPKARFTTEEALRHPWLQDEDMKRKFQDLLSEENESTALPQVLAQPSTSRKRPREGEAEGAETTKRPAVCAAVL

CDK1 = CDK1 (Homo sapiens, UniProt P06493); settings: data not shown
Chain of CDK1 (P06493 whole entry, looked up): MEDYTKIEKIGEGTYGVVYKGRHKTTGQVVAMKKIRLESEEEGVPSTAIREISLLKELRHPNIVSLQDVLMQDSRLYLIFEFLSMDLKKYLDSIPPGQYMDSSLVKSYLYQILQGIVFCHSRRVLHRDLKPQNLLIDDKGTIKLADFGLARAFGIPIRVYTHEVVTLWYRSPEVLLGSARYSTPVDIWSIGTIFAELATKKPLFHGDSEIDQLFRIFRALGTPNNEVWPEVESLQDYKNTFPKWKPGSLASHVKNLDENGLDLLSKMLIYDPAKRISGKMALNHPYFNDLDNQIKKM

[8] = 10 mg/kg iv, 6 h, 9 normalized from 5 mg/kg, 24 from 1 mg/kg, 20 from full PK

Compound: COc1cc(Nc2cnc(C#N)c(O[C@H](C)CN(C)C)n2)ncc1-c1cnn(C)c1 [Compound 26, (R)-3-((1-(Dimethylamino)propan-2-yl)oxy)-5-((4-methoxy-5-(1-methyl-1H-pyrazol-4-yl)pyridin-2-yl)amino)pyrazine-2-carbonitrile]
inhibition of CHK1 S296 autophosphorylation, 12 h [1]: robust inhibition | fall in drug concentration between 6 and 12 h [2]: 2–3 fold | number of enzymes strongly inhibited (>80%) [3]: 7 | inhibition (strongly inhibited) (AMPK): > 80% | enhancement in plasma levels at the 1 h time point relative to 20 (10 mg/kg, 1 h): 2 fold | selectivity for CHK1 (121 kinases): > 1000 fold | duration of inhibition of gemcitabine-induced pS296 CHK1 [4]: up to 24 h | tumor growth delay (days), 26 ([5]; gemcitabine experiment): –1.8 (±2.1) days | tumor growth delay (days), 26 ([5]; irinotecan experiment): 0.30 (±1.4) days | tumor growth delay (days), combination ([5]; HT29, q7d × 3, gemcitabine 100 mg/kg iv + 26 75 mg/kg po at 24 and 48 h): 11.4 (±3.3) days | tumor growth delay (days), combination ([5]; HT29, q7d × 3, irinotecan 12.5 mg/kg i.p. + 26 75 mg/kg po): 13.5 (±2.4) days | tumor growth delay (days), combination [6]: 6.0 (±2.4) days | tumor growth delay (days), combination [7]: 15.9 (±2.5) days

Compound: CNc1cc(Nc2cnc(C#N)c(O[C@H](C)CN(C)C)n2)ncc1-c1cnn(C)c1 [Compound 20, (R)-3-((1-(Dimethylamino)propan-2-yl)oxy)-5-((5-(1-methyl-1H-pyrazol-4-yl)-4-(methylamino)pyridin-2-yl)amino)pyrazine-2-carbonitrile]
inhibition of CHK1 S296 autophosphorylation, 12 h [1]: less powerful effect | fall in drug concentration between 6 and 12 h [2]: ca. 20 fold | mouse plasma level iv, 1 h (10 mg/kg iv, 1 h, 9 normalized from 5 mg/kg, 24 from 1 mg/kg, 20 from full PK): 910 (±23) ^h nM | mouse plasma level iv, 6 h [8]: 45 (±10) ^h nM | mouse plasma level po, 1 h (10 mg/kg po, 1 h): 555 (±82) ^h nM | mouse plasma level po, 6 h (10 mg/kg po, 6 h): 57 (±7) ^h nM

The remaining lines, values ahead:

mouse plasma level iv, 6 h [8]: <20 ^i, ^j nM
Compound: CNc1cc(Nc2cnc(C#N)c(O[C@@H]3CCN(C)C3)n2)ncc1-c1cnn(C)c1 [Compound 24]

efflux ratio (CaCo-2 permeability): > 6
Compound: CNc1cc(Nc2cnc(C#N)c(O[C@H](C)CN(C)C)n2)ncc1C(F)(F)F [Compound 15]

selectivity for CHK1 inhibition over CHK2 (CHK2): greater than 100 fold | selectivity for CHK1 inhibition over CDK1 (CDK1): greater than 100 fold
Compound: COC(=O)c1cnc(Nc2cnc(C#N)c(O[C@@H]3CCNC3)n2)cc1N(C)C [Compound 10]
